Measurements published in patent publication US9493460B2, “Diimide compounds” (UCL BUSINESS PLC, priority 2013, dated 2016).
“Also recorded” adds a separate entry of the source.

Tests used:
[1] = test system: telomerase; assay: TRAP-LIG cellular telomerase activity assay; format: cell-based, human; settings: at the doses relevant to the IC50 values
Protocol: FIG. 1. Gel showing telomerase activity in MIA-Pa-Ca-2 cells treated with compound 3h after seven days of treatment. Lane 1; untreated cells, lanes 2-4; cells treated increasing concentrations of 3h. Telomerase activity was assessed using the TRAP-LIG assay as described in Materials and Methods. Compound concentrations are indicated. Neg; untreated cells, Pos; positive control. Neg: negative control with telomerase but no ligand.
Telomerase activity was determined using the TRAP-LIG assay, a modified telomere repeat amplification protocol that ensures that there is no carry-over of ligand into the second PCR step of the assay. Briefly, 1 μg of protein from untreated and treated cells were incubated with TS forward primer (0.1 μg of 5′-AAT CCG TCG AGC AGA GTT-3′) at 30° C. for 10 min to allow the initial elongation to take place. Elongated products were purified using the QIAquick nucleotide purification kit (Qiagen) according to the manufacturer's instructions. Eluted samples were freeze-dried and re-dissolved in PCR grade water. Re-dissolved PCR products were subjected to amplification in master mix containing ACX reverse primer (1 μM, 5′-GCG CGG [CTTACC]3 CTA ACC-3′), TS forward primer (0.1 μg), TRAP buffer, BSA (5 μg), 0.5 mM dNTPs, and 2U RedHot TAQ polymerase (ABgene, U.K.) for 35 cycles of 94° C. for 30 s, 61° C. for 1 min, and at 72° C. for 1 min. […]

[2] = test system: 83 human genes involved in DNA damage signaling responses in Mia-PaCa2 cells; assay: qPCR array, DNA damage signaling response genes; format: cell-based
Protocol: Following compound exposure, cells were washed twice in PBS, harvested by trypsinisation, collected by centrifugation (300 g, 5 min, 4° C.) and re-suspended in RLT buffer (Qiagen). Samples were homogenised using QIAshredder spin columns and stored at −80° C. prior to RNA extraction. Three biological replicates were performed on separate days.
The expression of (i) 83 key human genes involved in telomere replication and maintenance, and (ii) 83 human genes involved in DNA damage signaling responses, was assessed using PCR arrays (SABiosciences). Total RNA was extracted from approximately 1×10^7 Mia-PaCa2 cells treated for 24 h with compound 3d, using the RNeasy kit (Qiagen) with on-column DNaseI treatment to remove residual genomic DNA. The quality of the harvested RNA was confirmed by nanodrop spectroscopy and by analysis with a Human RT^2 RNA QC PCR Array. First-strand cDNA synthesis was performed with the RT^2 first strand kit and qPCR was carried out using the RT^2 qPCR master mix (Qiagen) using 0.5 μg total RNA per array plate in a Stratagene MX-3000P instrument (Agilent, USA). Relative gene expression was determined by the ΔΔCT method using the web-based RT^2 Profiler™ PCR Array Data Analysis software (SABiosciences). Data were normalized to the geometric mean of five housekeeping genes (RPLP10, β-actin, B2M, GAPDH and HPRT1).
Various quadruplex-stabilising agents are known to induce pronounced DNA damage responses. We therefore next assessed the effect of 3d on the transcription of genes associated with DNA damage response and repair pathways. For these pathways the effect of a cytotoxic dosage of 3d (160 nM) on Mia-PaCa2 cells was also tested to assess the correlation between compound-induced DNA damage and cell killing. […] The latter two groups appeared to reflect a dynamic switch in the cellular response from low-level growth inhibition up to 40 nM of 3d to cytostatic then cytotoxic effects at 80 nM and 160 nM respectively.
Instead the response was dominated by genes with roles in growth arrest and more general stress responses.

[3] = test system: A549 (lung) cells; assay: SRB growth inhibition assay, 96 hr exposure, A549; format: cell-based, human; settings: Homo sapiens, A549, 96 h exposure
Method in brief: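 SRB growth inhibition was measured after 96 h exposure to 2-fold serial dilutions of compound, with cells maintained at 37 °C in 5% CO2 and medium containing 10% FBS. Absorbance at 540 nm was expressed as a percentage of untreated control wells. IC50 was derived from these values.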

[4] = test system: Mia-PaCa2 cells; assay: Senescence β-galactosidase staining; format: cell-based, human; settings: 7 days treatment
Protocol: FIG. 4. Micrographs showing the results of staining for evidence of cellular senescence in MiaPaCa2 cells using the β-galactosidase assay. Senescent cells are coloured blue in this procedure. Staining was performed after seven days treatments with (a) vehicle control, ×100 magnification, (b) 3.3 nM of compound 3d, ×200 magnification, (c) 6.6 nM of compound 3d, ×200 magnification, (d) 50 nM of compound 4, ×200 magnification, (e) plot of the percentage of senescent cells at the indicated concentrations of compounds 3d and 4, compared to the background senescence in this cell line (with vehicle control only). Cell counts were performed in triplicate and error bars represent estimated standard deviations.
Senescence detection and quantification experiments were carried out using the Senescence β-galactosidase staining kit (Cell Signalling Technology, MA, USA) according to the manufacturer's protocol. Briefly, 1×10^5 cells were seeded in 6-well plates in 2 ml of medium supplemented with the test compound and incubated for 24 h. Cells were washed (2 ml PBS), fixed (2% formaldehyde and 2% glutaraldehyde in PBS, 15 min, room temperature) and washed (2×2 ml PBS) before staining overnight. Senescent cells, detected by their blue pigmentation, were counted using a light microscope.
CDKN1A encodes the cyclin-dependent kinase p21WAF1 that induces replicative senescence, which is a well-studied consequence of telomerase inhibition and telomere maintenance disruption. […] Compounds 3b and 3d behaved in a similar manner to each other, with concentrations of 3-4 nM being sufficient to result in ˜50-60% of cells becoming senescent after this time-course.

Question: `CN1CCN(CCCNc2cc3c4c(c(NCCCN5CCN(C)CC5)cc5c4c2C(=O)N(CCCN2CCOCC2)C5=O)C(=O)N(CCCN2CCOCC2)C3=O)CC1` [Compound 3d, 4,9-bis((3-(4-methylpiperazin-1-yl)propyl)amino)-2,7-bis(3-morpholinopropyl)benzo[lmn][3,8]phenanthroline-1,3,6,8(2H,7H)-tetraone] was tested. Which telomerase activity inhibition [1] did it give?
Answer: not inhibitors of telomerase activity

Question: What about the “expression of DNA damage checkpoint genes ATM and ATR” value ([2]; 24 h) of the same compound?
Answer: no significant induction or repression

Question: And the “induction of γ-H2AX” value ([2]; Mia-PaCa2 cells, data not shown)?
Answer: no apparent induction; also recorded: do not appear to induce these particular changes

Question: What about the “expression of CDKN1A, DDIT3 and GADD45G” value ([2]; cytotoxic concentrations) of the same compound?
Answer: strongly up-regulated

Question: What about the “expression of the PARP gene” value ([2]; dose-dependent) of the same compound?
Answer: down-regulated

Question: What about the “expression of CDKN1A, DDIT3 and GADD45G” value ([2]; lower concentrations) of the same compound?
Answer: strongly down-regulated

Question: What about the “number of DNA damage response genes significantly increased or decreased greater than 2-fold” value ([2]; of 83 genes, 20, 40, 80 or 160 nM, 24 h) of the same compound?
Answer: 16 genes

Question: What about the IC50 [3] of the same compound?
Answer: 10 to 20 nM

Question: What about the “induction of senescence (in words)” value [4] of the same compound?
Answer: strong induction of senescence

Question: And the “potency as inducer of cellular senescence relative to compound 4” value [4]?
Answer: ~10 fold
